According to patent US8691760B2, “Peptides, pharmaceutical compositions comprising same and uses thereof” (priority 2009, dated 2014):
Where “and” joins values, the source holds several entries; their conditions need not be identical. Identical values can stand only once. Entries after “also recorded” stand apart in the source; their conditions may differ. Like-named read-outs stand apart in the source and are kept apart here. Ends that are not written are not given here. Peptide text beside a SMILES is read from it.

Columns and labels:
[1] = biological target: T1, rat recombinant IDE (Rattus norvegicus, UniProt P35559); assay: Fluorometric IDE activity assay (InnoZyme Insulysin/IDE Immunocapture Activity Assay Kit, FRET substrate); format: biochemical; details: 16 hours at 37° C.; for IC50: 3 repeated experiments
T1 construct: purchased Calbiochem (InnoZyme Insulysin/IDE Immunocapture Activity Assay Kit) CBA079
Method: For example, one method that may be used (as described in detail in Example 2, of the Examples section which follows) comprises the use of Insulysin/IDE Immunocapture Activity Assay Kit (available e.g. from InnoZyme™, Calbiochem). Using this kit ELISA plates are first coated with the target enzyme (i.e. IDE) and then the plates are incubated with the synthesized peptide. The enzymatic activity is measured in comparison to wells without the peptide using for example a FRET substrate, Mca-[…]-EDDnp (SEQ ID NO: 11). Cleavage of the scissile amide bond between R and K releases the fluorophore from the quenching molecule, Dnp, resulting in an increase in fluorescence. The increase in fluorescence is measured using an excitation wavelength of 320 nm and an emission wavelength of 405 nm.
In order to measure IDE activity, coating of ELISA plates with the target enzyme (i.e. IDE) was carried out. Next, plates were incubated with the selected synthesized peptide candidate and the enzymatic activity was measured as compared to wells without the peptide candidate. This was carried out using InnoZyme™ Insulysin/IDE Immunocapture Activity Assay Kit from Calbiochem (worldwidewebdotmerckbiosciencesdotcom/Products/pdsdotaspquestionmarkcatnoequal CBA079), a specific and sensitive assay for measuring active IDE in cell lysates, tissue extracts and biological fluids.
Peptide ability to inhibit IDE activity was measured using InnoZyme™ Insulysin/IDE Immunocapture activity assay kit (Calbiochem), an affinity purified polyclonal antibody that recognized human, mouse, and rat insulysin, immobilized on a 96-well plate to capture the enzyme. In brief, rat recombinant IDE (1.14 nM) was incubated with increasing amounts of the candidate inhibitors with doses ranging from 1-100 μM for 16 hours at 37° C. and the activity of captured IDE was measured using a FRET substrate, Mca-[…]-EDDnp (SEQ ID NO: 11). Cleavage of the scissile amide bond between R and K released the fluorophore from the quenching molecule, Dnp, resulting in an increase in fluorescence. The increase in fluorescence was measured using an excitation wavelength of 320 nm and an emission wavelength of 405 nm. As a control, the kit used rat recombinant IDE. IC50 were evaluated following three repeated experiments.
Specifically, rat recombinant IDE (1.14 nM) was incubated with different doses of ADT-21 ([…]) for 16 hours at 37° C. and the activity of the captured insulysin (IDE) was measured using a FRET substrate, Mca-[…]-EDDnp (SEQ ID NO: 11) using Florolog with the following parameters Ex=320 nm, Gm=405 nm, Slit=2, Maximum trails=10, Integration time=1, Target standard deviation=1%.

[2] = biological target: IDE (Homo sapiens, UniProt P14735); assay: Blocking of VZV gE interaction with IDE; format: binding; details: data not shown
[3] = test system: splenocytes obtained from NOD mice; assay: IFN-γ and IL-17 secretion from splenocytes of ADT21-treated NOD mice (ELISA); format: in vivo, mouse; details: splenocytes of treated NOD mice (30 weeks), incubated with insulin 48 hours
Method: Splenocytes were obtained from NOD mice at the age of 30 weeks. Splenocytes were obtained from both control and ADT21-treated mice. Splenocytes were cultured in T cell medium buffer and plated at 1×10^6 cells per well with and without bovine insulin (Sigma) for 48 hours as previously described [Frenkel et al. (2003) J Immunol 171, 6549-6555].
(§1) Secretions of IFN-γ and IL-17 were measured in 48 hour cultured supernatants by ELISA. Briefly, 96 well plates were coated overnight with 1.5 μg/ml capture antibody (R&D Systems). Supernatants (as described above) were incubated overnight and detection biotinylated antibody (1 μg/ml, R&D Systems) was added for 1 hour. Plates were covered for 30 minutes with avidin-HRP conjugate and […] was used as a substrate for color development. 1M H2SO4 was used as a stop solution. Plates were measured using an ELISA plate reader at 405 nm.

[4] = test system: CD4+ T-cells; assay: Co-culture of CD4+ T-cells of insulin-immunized NOD mice with spleen cells, IFN-γ and IL-17 ELISA; format: cell-based, mouse; details: co-culture with 10 μg/ml insulin, with or without 100 nM ADT21, 48 h
Method: as §1
NOD mice were immunized subcutaneously (s.c.) with bovine insulin (SIGMA) (n=6-7). 10 days later, CD4+ T-cells were isolated from the spleens of these mice using magnetic beads for negative selection (Miltenyi Biotec). The CD4+ T cells were co-cultured at a concentration of 1×10^6 cells/well in 96-well plates at a ratio of 1:1 with cells obtained from spleens of non immunized NOD mice (n=5). The co-culture was incubated with 10 μg/ml insulin with or without 100 nM ADT21. Supernatants were collect after 48 h of co-culture for cytokine measurements by ELISA for IL-17 and IFN-γ.

[5] = test system: NOD mice; assay: Degree of insulitis, histological analysis of the pancreas of NOD mice; format: in vivo, mouse; details: NOD mice at 30 weeks, vs PBS-treated group
From the text: Randomly selected animals from each group (at 30 weeks) were sacrificed and the pancreas of each was examined in a double-blind fashion for insulitis using histological analysis of the pancreas as previously described [Frenkel et al. (2003) J Immunol 171, 6549-6555]. Six to ten islets per mouse were individually scored by two independent observers using a semi-quantitative scale ranging from 0-4 as follows: 0, normal islet with no sign of T cell infiltration; 1, islet associated with perivascular, periductal leukocytic infiltration only; 2, more extensive peri-islet infiltration, but with lymphocytes with less than 25% islet destruction; 3 more than 25% islet destruction; and 4, complete islet destruction.

[6] = test system: NOD mice; assay: NOD mouse model of insulin dependent diabetes mellitus, nasal administration, blood glucose / diabetes onset; format: in vivo
From the text: (§2) A NOD mouse model has been used as previously described as a model for insulin dependent diabetes mellitus (IDDM) [Atkinson et al., (1990) Diabetes 39, 933-937]. Diabetes in NOD (NOD/ShiLtJ) mice is characterized by insulitis and marked decreases in pancreatic insulin content that occurred in females at about 15 weeks of age. The animals were monitored carefully when receiving the different treatments. Onset of diabetes was marked by moderate glycosuria and by non-fasting plasma glucose higher than 250 mg/dl.
(§3) 12 week old NOD mice were divided into two groups of 10-12 mice each, receiving, every other day, nasal administration of 10 μl of the respective peptide (3.76 μg/kg) or control PBS.
Mice were monitored for blood glucose levels weekly using glucose test strip (Elite, BAYER).

[7] = test system: NOD mice; assay: IGF-1 blood level in NOD mice at 30 weeks (AssayMax mouse IGF1 kit); format: in vivo
From the text: NOD mice were monitored for the blood level of Insulin growth factor 1 (IGF-1) at 30 weeks using AssayMax mouse IGF1 kit.

[8] = biological target: IDE (Rattus norvegicus, UniProt P35559); assay: In vitro insulin degradation assay (bovine insulin + IDE, insulin ELISA); format: biochemical; details: ADT21 0.2 nM; insulin 0.87 nM, IDE 1.14 nM, 16 hours at 37° C.
Method: Insulin (0.87 nM) isolated from bovine pancreas (SIGMA) was incubated for 16 hours at 37° C. in the presence or absence of IDE (1.14 nM) together with the inhibitors (0.002-0.2 nM). The levels of insulin degradation were analyzed using mouse insulin ELISA kit (Mercodia).
In order to verify that ADT21 reduces degradation of insulin by IDE, inventors incubated bovine insulin for 16 hours at 37° C. with or without IDE (1.14 nM) along with ADT21. The levels of insulin degradation were analyzed using a mouse insulin ELISA kit (as described in the “materials and experimental procedures” section above). […] Therefore, inventors speculated that the use of this inhibitor in vivo would delay insulin degradation without preventing IDE activity.

[9] = test system: NOD mice; assay: Blood insulin levels in NOD mice at 30 weeks (HTRF Insulin assay); format: in vivo, mouse; details: serum
From the text: as §2, §3
Mice were monitored for insulin blood levels at 30 week using HTRF® Insulin assay (Cisbio bioassays).

[10] = IC50, rat recombinant IDE 1.14 nM, FRET substrate Mca-GGFLRKHGQ-EDDnp

T1 sequence (P35559 whole entry): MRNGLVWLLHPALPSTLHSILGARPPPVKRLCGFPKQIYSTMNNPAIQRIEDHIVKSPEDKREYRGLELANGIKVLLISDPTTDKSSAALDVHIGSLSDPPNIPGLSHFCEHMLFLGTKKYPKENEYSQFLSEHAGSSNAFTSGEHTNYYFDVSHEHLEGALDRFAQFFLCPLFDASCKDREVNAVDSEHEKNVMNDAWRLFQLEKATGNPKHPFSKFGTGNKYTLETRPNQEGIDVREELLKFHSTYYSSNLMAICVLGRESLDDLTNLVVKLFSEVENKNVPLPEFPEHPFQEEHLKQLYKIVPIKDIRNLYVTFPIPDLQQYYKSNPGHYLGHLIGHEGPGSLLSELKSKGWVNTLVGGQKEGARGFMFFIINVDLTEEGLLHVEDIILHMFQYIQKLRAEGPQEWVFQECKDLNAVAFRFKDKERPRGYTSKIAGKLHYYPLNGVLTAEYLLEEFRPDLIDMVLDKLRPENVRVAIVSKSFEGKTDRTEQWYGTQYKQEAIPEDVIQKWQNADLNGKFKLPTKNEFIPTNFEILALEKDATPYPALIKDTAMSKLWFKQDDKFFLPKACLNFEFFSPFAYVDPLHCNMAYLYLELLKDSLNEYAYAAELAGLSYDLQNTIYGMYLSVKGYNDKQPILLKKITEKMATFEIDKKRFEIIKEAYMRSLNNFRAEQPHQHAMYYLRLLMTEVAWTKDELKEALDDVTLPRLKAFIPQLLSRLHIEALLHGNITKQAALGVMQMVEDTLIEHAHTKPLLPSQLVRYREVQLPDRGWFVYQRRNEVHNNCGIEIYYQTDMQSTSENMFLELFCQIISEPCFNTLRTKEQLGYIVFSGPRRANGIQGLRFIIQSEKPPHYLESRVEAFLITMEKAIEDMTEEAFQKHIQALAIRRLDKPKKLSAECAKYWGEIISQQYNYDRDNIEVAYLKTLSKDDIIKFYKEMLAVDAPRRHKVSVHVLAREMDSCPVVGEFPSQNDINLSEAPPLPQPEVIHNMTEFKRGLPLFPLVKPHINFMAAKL
IDE (Rattus norvegicus, UniProt P35559), sequence (P35559 whole entry): as above

Question: How did the IC50 [1, 10] turn out when ITNPGSGGSSLANFDDLVHSSNN [ADT42] was run?
Answer: The IC50 was 199 nM.

Question: How did the IC50 [1, 10] turn out when KCNTGSGGSSLANFDDLVHSSNN [ADT23] was run?
Answer: Its IC50 is 616 nM.

Question: Which IC50 [1, 10] does the source give for “ITNPVRASVLRYDDFHTD [VZV, reference compound]” here?
Answer: The IC50 was 450 nM.

Question: How did the “blocking of VZV gE interaction with IDE” value [2] turn out when “VZV gE (24-50): synthetic peptide corresponding to amino acids 24-50 of VZV gE (ITNPVRASVLRYDDFHTDEDKLDTNSV; A peptide sequence derived from VZV gE (24-50))” was run?
Answer: The value was “blocked VZV gE interaction with IDE in a concentration dependent manner”.

Question: With ITNPGSGGSSEALYDDLVCG [ADT41] as the compound, how does the IC50 [1, 10] read?
Answer: Its IC50 is 331 nM.

Question: KCNTGSGGSSVLRYDDFHTD [ADT61] was tested. Which IC50 [1, 10] did it give?
Answer: The IC50 was 824 nM.

Question: Which IC50 [1, 10] does the source give for DAEFGSGGSSKLVFDDFAED [ADT25] here?
Answer: The IC50 was 604 nM.

Question: With ITNPGSGGSSKLVFDDFAED [ADT44] as the compound, how does the IC50 [1, 10] read?
Answer: The IC50 was 545 nM.

Question: With VLRYDDFHTD [ADT1] as the compound, how does the IC50 [1, 10] read?
Answer: Its IC50 is 145 nM.

Question: How did the IC50 [1, 10] turn out when HSQGGSGGSSEALYDDLVCG [ADT72] was run?
Answer: Its IC50 is 118 nM.

Question: For `N[C@@H](CC(=O)O)C(=O)N[C@@H](CC(=O)O)C(=O)O` [ADT-31, DD] (H-Asp-Asp-OH), which IC50 ([1]; rat recombinant IDE 1.14 nM, FRET substrate Mca-[…]-EDDnp, read-out: IC50) is on record?
Answer: Its IC50 is 736 nM.

Question: Which IC50 [1, 10] does the source give for HSQGGSGGSSFVQWDDLMN [ADT24] here?
Answer: Its IC50 is 175 nM.

Question: How did the IC50 [1, 10] turn out when HSQGGSGGSSVLRYDDFHTD [ADT71] was run?
Answer: Its IC50 is 1390 nM.

Question: With EALYLVCG [INS, reference compound] as the compound, how does the IC50 [1, 10] read?
Answer: Its IC50 is 465 nM.

Question: Which IC50 [1, 10] does the source give for KLVFDDFAED [ADT5, KLVFDDFAED] here?
Answer: The IC50 was 552 nM.

Question: How did the “inhibition of IDE activity (in words)” value ([1]; rat recombinant IDE 1.14 nM) turn out when VLRYNNFHTD [ADT5N] was run?
Answer: The value was “prevented the inhibition of IDE”.

Question: For LANFDDLVHSSNN [ADT3], which IC50 [1, 10] is on record?
Answer: The IC50 was 788 nM.

Question: EALYDDLVCG [ADT2] was tested. Which IC50 [1, 10] did it give?
Answer: The IC50 was 230 nM.

Question: Which results are given for ITNPGSGGSSVLRYDDFHTD [ADT21]?
Answer: reduction in the levels of IL-17 [3]: 52%; release of IFN-γ ([4]; p<0.01): dose dependant reduction; release of IL-17 ([4]; p<0.05): dose dependant reduction; infiltration of T cells in pancreatic islets (insulitis) [5]: significantly less infiltration of T cells; age at first conversion to diabetes ([6]; NOD mice treated from 12 weeks, every other day, 3.76 μg/kg (94 ng/day), untreated: 15 weeks): 20 weeks; behavioral changes that might indicate toxicity (body weight, eating habits, tail tone, mobility) ([6]; NOD mice, every other day): no behavioral changes; animals remaining disease-free at 30 weeks ([6]; NOD mice, every other day from 12 weeks, 71% of control mice diabetic): 75%; disease progression (in words) ([6]; NOD mice, every other day, vs PBS, P<0.05): significantly delayed; toxic effect related to IGF1 elevation ([7]; IGF1 below the basal level (about 1000 ng/ml in wild type mice)): no toxic effect was observed; IGF1 blood level ([7]; NOD mice at 30 weeks, control NOD mice 33 ng/ml): 440 ng/mL; reduction of insulin degradation by IDE [8]: 400%; blood insulin level relative to reference NOD mice ([9]; printed: compared to sick NOD mice): 62%; increase in blood insulin ([9]; vs control group): about 400%; IC50 [1, 10]: 100 nM and 10 to 200 nM; inhibition of IDE activity (in words) ([1]; rat recombinant IDE 1.14 nM): dose dependent and high efficacy in inhibition of IDE activity; also recorded: inhibits IDE activity in a dose dependant manner

Question: FVNQGSGGSSVLRYDDFHTD [ADT51] was tested. Which IC50 [1, 10] did it give?
Answer: The IC50 was 494 nM.

Question: With DAEFGSGGSSEALYDDLVCG [ADT82] as the compound, how does the IC50 [1, 10] read?
Answer: Its IC50 is 438 nM.
